In the supplement of paper PMC10307832:

Assays:
Experiment in all cases: relative viability (nuclei count vs DMSO), 5 days (fraction); higher = more cells survive
TGX 221 + Palbociclib = compound: CC1=CN2C(=O)C=C(N=C2C(=C1)C(C)NC3=CC=CC=C3)N4CCOCC4 [TGX 221] + CC(=O)c1c(C)c2cnc(Nc3ccc(N4CCNCC4)cn3)nc2n(C2CCCC2)c1=O [Palbociclib] (partner 0.5 µM)
Summary of the method: (§1)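 The day after seeding in 1536-well plates, lung cancer cell lines were treated by pin tool with a single drug, or with a fixed anchor-drug dose together with five library-drug doses (not always all listed) in √10 steps. After 5 days, a combined fix-and-stain solution (final 0.05% Triton X-100, 1% formaldehyde, 1 ug/ml Hoechst) was added. Nuclei counted on 4× images gave relative viability as treated counts over vehicle counts, reported as the median of duplicate plates.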

[1] = compound: C1=CC=C(C(=C1)C2=CC=C(C=C2)C3=CSC4=C3C(=C(C(=O)N4)C#N)O)O + NC(=O)Nc1cc(-c2cccc(F)c2)sc1C(=O)N[C@H]1CCCNC1 [AZD7762] (partner 0.2 µM)
Summary of the method: as §1

TGX 221 + Tozasertib = compound: CC1=CN2C(=O)C=C(N=C2C(=C1)C(C)NC3=CC=CC=C3)N4CCOCC4 [TGX 221] + Cc1cc(Nc2cc(N3CCN(C)CC3)nc(Sc3ccc(NC(=O)C4CC4)cc3)n2)n[nH]1 [Tozasertib] (partner 0.1 µM)
Summary of the method: as §1

TGX 221 + Linsitinib = compound: CC1=CN2C(=O)C=C(N=C2C(=C1)C(C)NC3=CC=CC=C3)N4CCOCC4 [TGX 221] + C[C@]1(O)C[C@@H](c2nc(-c3ccc4ccc(-c5ccccc5)nc4c3)c3c(N)nccn32)C1 [Linsitinib] (partner 1 µM)
Summary of the method: as §1

Cell Line	relative viability (TGX 221 + Palbociclib; first compound 0.08 µM)	relative viability (TGX 221 + Palbociclib; first compound 0.253 µM)	relative viability (TGX 221 + Palbociclib; first compound 0.8 µM)	relative viability (TGX 221 + Palbociclib; first compound 2.53 µM)	relative viability (TGX 221 + Palbociclib; first compound 8 µM)	relative viability ([1]; first compound 0.08 µM)	relative viability ([1]; first compound 0.253 µM)	relative viability ([1]; first compound 0.8 µM)	relative viability ([1]; first compound 2.53 µM)	relative viability ([1]; first compound 8 µM)	relative viability (TGX 221 + Tozasertib; first compound 0.08 µM)	relative viability (TGX 221 + Tozasertib; first compound 0.253 µM)	relative viability (TGX 221 + Tozasertib; first compound 0.8 µM)	relative viability (TGX 221 + Tozasertib; first compound 2.53 µM)	relative viability (TGX 221 + Tozasertib; first compound 8 µM)	relative viability (TGX 221 + Linsitinib; first compound 0.08 µM)	relative viability (TGX 221 + Linsitinib; first compound 0.253 µM)	relative viability (TGX 221 + Linsitinib; first compound 0.8 µM)	relative viability (TGX 221 + Linsitinib; first compound 2.53 µM)	relative viability (TGX 221 + Linsitinib; first compound 8 µM)
NCI-H522	0.941	1.01	0.929	0.944	0.815	0.802	0.871	0.869	0.898	0.772	0.52	0.559	0.575	0.502	0.513	–	–	–	–	–
Calu-6	–	–	–	–	–	–	–	–	–	–	–	–	–	–	–	0.909	0.913	0.935	0.855	0.84
NCI-H1703	–	–	–	–	–	0.113	0.147	0.111	0.15	0.148	–	–	–	–	–	0.678	0.522	0.48	0.487	0.636
NCI-H2023	0.328	0.337	0.269	0.342	0.212	–	–	–	–	–	0.332	0.297	0.397	0.302	0.145	0.546	0.469	0.395	0.321	0.218
COR-L 105	0.417	0.4	0.332	0.473	0.41	–	–	–	–	–	0.412	0.418	0.309	0.395	0.323	0.986	0.828	1.02	0.537	0.554
COR-L23	0.247	0.278	0.305	0.3	0.284	–	–	–	–	–	0.168	0.222	0.187	0.164	0.179	0.883	0.847	0.964	0.732	0.881
NCI-H520	0.156	0.139	0.146	0.166	0.132	–	–	–	–	–	0.469	0.385	0.382	0.304	0.303	0.929	0.767	0.779	0.679	0.63
NCI-H596	–	–	–	–	–	0.862	1.09	1.21	1.18	0.986	0.94	0.944	0.91	0.864	0.61	1.13	0.913	0.972	0.972	0.985
A549	–	–	–	–	–	–	–	–	–	–	–	–	–	–	–	0.491	0.451	0.391	0.432	0.456
SW 1573	0.299	0.313	0.39	0.341	0.343	–	–	–	–	–	0.175	0.208	0.211	0.165	0.207	0.686	0.747	0.685	0.768	0.544
NCI-H661	0.427	0.43	0.396	0.406	0.376	–	–	–	–	–	0.348	0.371	0.392	0.358	0.373	0.486	0.472	0.363	0.457	0.362
SW 900	–	0.429	0.427	0.356	0.295	–	0.625	0.607	0.692	0.563	0.657	0.749	0.824	0.636	0.453	–	–	–	–	–
IA-LM	–	–	–	–	–	–	–	–	–	–	–	–	–	–	–	0.685	0.509	0.58	0.621	0.685
